Active and inactive are the calls of the source.
How the values were obtained:
[1] = inhibitors of intracellular T. cruzi replication, confirmation, NIH3T3 host cells, beta-gal luminescence (AID 2044); assay type: functional, cell-based;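 also: intracellular parasites grown in NIH/3T3 mouse fibroblasts as host cells; luminescent beta-galactosidase reporter signal from transgenic T. cruzi replicating inside host cells; inhibitors lower the luminescence signal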
[2] = cytotoxicity toward NIH3T3 fibroblasts, dose response, counter-screen, cell-based, ATP luminescence, mouse fibroblasts (AID 2010); assay type: functional;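 also: cells exposed to compound for about 90 hours before reading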
Cytochrome P450 3A4 = Cytochrome P450 3A4 (Homo sapiens, UniProt P08684);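 also: CYP3A4 tested as one member of a cytochrome P450 panel screen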
Cytochrome P450 2C19 = Cytochrome P450 2C19 (Homo sapiens, UniProt P33261); assay: Cytochrome panel assay with activity outcomes. Panel member name: p450-cyp2c19 Compounds with AC50 equal or less than 10 uM are considered active; assay type: functional
[3] = molecular target: T1, Corticotropin-releasing factor receptor 2/Corticotropin-releasing factor-binding protein (Homo sapiens, UniProt P24387+Q13324); assay: activators of CRF receptor 2 with binding protein – uHTS hits, confirmation (AID 602473); assay type: functional; details: read-out: EC50_Mean
T1 sequence (Q13324 whole entry): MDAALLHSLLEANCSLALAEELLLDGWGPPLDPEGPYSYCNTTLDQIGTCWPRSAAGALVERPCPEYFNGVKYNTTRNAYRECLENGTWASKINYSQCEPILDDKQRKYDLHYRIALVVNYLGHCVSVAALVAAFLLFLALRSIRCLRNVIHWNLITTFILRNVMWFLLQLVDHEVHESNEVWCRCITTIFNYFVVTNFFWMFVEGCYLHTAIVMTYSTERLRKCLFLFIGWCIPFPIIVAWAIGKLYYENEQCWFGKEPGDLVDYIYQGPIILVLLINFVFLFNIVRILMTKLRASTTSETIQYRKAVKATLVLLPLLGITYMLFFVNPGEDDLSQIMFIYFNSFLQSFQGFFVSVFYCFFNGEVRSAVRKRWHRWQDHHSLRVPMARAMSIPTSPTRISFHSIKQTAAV
T1 sequence (P24387 whole entry): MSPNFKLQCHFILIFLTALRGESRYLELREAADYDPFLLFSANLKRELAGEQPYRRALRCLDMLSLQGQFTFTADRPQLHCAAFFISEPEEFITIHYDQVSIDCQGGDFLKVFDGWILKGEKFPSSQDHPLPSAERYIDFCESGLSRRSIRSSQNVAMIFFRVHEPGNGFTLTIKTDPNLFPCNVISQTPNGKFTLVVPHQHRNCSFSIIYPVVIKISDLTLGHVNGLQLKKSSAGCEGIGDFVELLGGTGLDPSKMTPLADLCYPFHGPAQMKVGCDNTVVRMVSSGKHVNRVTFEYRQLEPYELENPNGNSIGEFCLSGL

Chain of Cytochrome P450 2C19 (P33261 whole entry): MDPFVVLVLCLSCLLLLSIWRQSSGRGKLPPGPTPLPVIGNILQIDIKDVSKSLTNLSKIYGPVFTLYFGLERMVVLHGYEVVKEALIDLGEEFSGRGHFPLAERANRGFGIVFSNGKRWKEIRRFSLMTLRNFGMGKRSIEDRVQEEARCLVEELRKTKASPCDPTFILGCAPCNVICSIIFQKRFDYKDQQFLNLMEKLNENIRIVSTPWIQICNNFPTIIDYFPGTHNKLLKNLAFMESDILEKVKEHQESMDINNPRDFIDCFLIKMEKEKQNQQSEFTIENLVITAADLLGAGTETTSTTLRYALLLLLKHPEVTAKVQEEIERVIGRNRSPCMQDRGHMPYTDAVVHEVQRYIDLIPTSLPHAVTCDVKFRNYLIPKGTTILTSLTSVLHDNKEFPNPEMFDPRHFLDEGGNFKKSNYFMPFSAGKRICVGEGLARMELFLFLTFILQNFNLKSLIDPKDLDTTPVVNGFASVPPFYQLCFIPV
Chain of Cytochrome P450 3A4 (P08684 whole entry): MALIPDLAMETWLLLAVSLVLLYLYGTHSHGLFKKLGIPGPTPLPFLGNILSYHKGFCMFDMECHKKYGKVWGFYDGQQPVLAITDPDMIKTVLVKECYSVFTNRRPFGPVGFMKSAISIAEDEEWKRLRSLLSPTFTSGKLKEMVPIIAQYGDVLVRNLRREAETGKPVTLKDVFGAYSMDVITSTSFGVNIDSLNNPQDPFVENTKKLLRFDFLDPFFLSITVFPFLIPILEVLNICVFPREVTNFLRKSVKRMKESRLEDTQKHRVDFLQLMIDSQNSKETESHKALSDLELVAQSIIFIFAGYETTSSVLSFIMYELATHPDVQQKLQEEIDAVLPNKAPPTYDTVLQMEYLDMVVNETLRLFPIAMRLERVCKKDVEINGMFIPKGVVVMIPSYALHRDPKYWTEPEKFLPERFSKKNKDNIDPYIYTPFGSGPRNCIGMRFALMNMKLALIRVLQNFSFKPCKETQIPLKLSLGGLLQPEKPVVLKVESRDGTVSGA

Row | SMILES | EC50 [1] | EC50 [2] | further results
1 | CCn1c(NCc2cc(Br)ccc2NS(=O)(=O)c2ccc(C)cc2)nc2ccccc21 | 2.61 µM (active) | > 60 µM (not active) | –
2 | COC(=O)Nc1nc(-c2cc(Cl)ccc2Cl)cs1 | 0.572 µM (active) | > 60 µM (not active) | –
3 | CN(Cc1ccco1)c1nc(-c2ccccc2C(F)(F)F)nc2ccccc12 | – | – | AC50 (Cytochrome P450 3A4): 12.6 µM (inconclusive)
4 | CCCCCSc1nncc(O)n1 | – | – | AC50 (Cytochrome P450 2C19; read-out: AC50): 39.8 µM (inconclusive)
5 | Cc1c(CN2CCC(CO)(Cc3ccccc3)CC2)c2ccccc2n1C | 2.4 µM (active) | 9.85 µM (active) | –
6 | CC1(C)CC(=O)C([C@H]2C3=C(CC(C)(C)CC3=O)Oc3ccccc32)C(=O)C1 | – | – | AC50 (Cytochrome P450 3A4): 15.8 µM (inconclusive)
7 | CCn1nc(C)c(NC(=O)/C=C/c2ccc(OC)c(COc3ccc(Cl)cc3Br)c2)c1C | 0.736 µM (active) | > 60 µM (not active) | –
8 | CCN1CCc2c(C#N)c(NCc3ccccc3)nc(N(CC)CC)c2C1 | 0.426 µM (active) | > 15 µM (not active) | –
9 | Cn1c(=O)c(-c2cc(F)cc(F)c2)nc2cncnc21 | – | – | AC50 (Cytochrome P450 3A4): 1.26 µM (inconclusive)
10 | N#C/C(=C/C=C/c1ccccc1)C(=O)Nc1ccccc1 | 8.82 µM (active) | > 60 µM (not active) | –
11 | Cc1noc(C)c1-c1nccc(N2CCOCC2)n1 | – | – | AC50 (Cytochrome P450 2C19; read-out: AC50): 10 µM (inconclusive)
12 | COc1ccc(S(=O)(=O)N2CCCCCC2)cc1C(=O)N(C)Cc1ccc(Cl)cc1Cl | – | – | EC50 [3]: 5 µM (active)
13 | Cc1ccccc1C(=O)Oc1ccc(Br)cc1C(=S)N1CCCC1 | – | – | AC50 (Cytochrome P450 3A4): 8.91 µM (inconclusive)
14 | CC(C)(C)c1ccc(OCC(=O)O)c(Cl)c1 | – | – | AC50 (Cytochrome P450 2C19): inconclusive
15 | Cc1nc(C(=O)NC2CCCCC2)sc1C1(C)CC(c2cccnc2)=NO1 (stereo not drawn) | 1.3 µM (active) | > 60 µM (not active) | –
16 | COc1ccc2cc(CN(Cc3cccnc3)Cc3nnnn3Cc3ccccc3)c(O)nc2c1 | 0.554 µM (active) | > 60 µM (not active) | –

Row | SMILES | EC50 [1] | EC50 [2] | further results
17 | CN1CCN(CCCNC(=O)c2ccc(CSCc3cccc(Cl)c3)o2)CC1 | – | – | AC50 (Cytochrome P450 3A4): 22.4 µM (inconclusive)
18 | c1ccc2c[n+](Cc3ccnc4ccccc34)ccc2c1 | – | – | AC50 (Cytochrome P450 3A4): 1.26 µM (inconclusive)
19 | COc1ccc(F)cc1C(=O)C1CCCN(Cc2cnc(N3CCCC3)s2)C1 (stereo not drawn) | 0.303 µM (active) | > 60 µM (not active) | –
20 | Cc1ccc(-c2csc3ncnc(NCCN4CCOCC4)c23)cc1 | – | – | AC50 (Cytochrome P450 3A4): 1.12 µM (inconclusive)
21 | C=CC[N+]1(CC#CCOC(c2ccccc2)c2ccccc2)CCOCC1.[Cl-] | – | – | AC50 (Cytochrome P450 2C19): inconclusive
22 | O=C(Cn1cnc2ccccc21)NC(c1ccccc1)c1ccccc1 | – | – | AC50 (Cytochrome P450 2C19; read-out: AC50): 20 µM (inconclusive)
23 | Cc1cc2c(cc1S(=O)(=O)CCC(=O)NC1CCCCC1C)OCC(=O)N2 (stereo not drawn) | – | – | EC50 [3]: > 53 µM (inactive)
24 | O=[N+]([O-])c1ccc(S(=O)(=O)NCC(c2ccco2)N2CCc3ccccc3C2)cc1 (stereo not drawn) | 1.86 µM (active) | > 60 µM (not active) | –
25 | C[C@H]1O[C@@H](O[C@H]2CC[C@@]3(C)C(CC[C@]4(C)C3C=C[C@]35OC[C@@]6(CCC(C)(C)C[C@H]63)[C@@H](O)C[C@]54C)[C@]2(C)CO)[C@H](O)[C@@H](O[C@@H]2O[C@H](CO)[C@@H](O)[C@H](O)[C@H]2O)[C@H]1O (stereo partly drawn) | – | – | EC50 [3]: 9.4 µM (active)
26 | CCOC(=O)c1cn(Cc2ccccc2)c(C(=O)OC(C)(C)C)c1O | – | – | EC50 [3]: 5.22 µM (active)
27 | CCCCCCc1cc2cc(C(=N)NNC(=O)c3ccncc3)c(=O)oc2cc1O | – | – | EC50 [3]: 1.11 µM (active)
28 | O=[N+]([O-])c1ccccc1/C=C/C=N/Nc1ccc(S(=O)(=O)Nc2ccc(Cl)cc2)cc1[N+](=O)[O-] | 1.35 µM (active) | > 60 µM (not active) | –
29 | O=C(NCCCN1CCOCC1)c1cc(C(=O)C2CC2)c[nH]1 | – | – | AC50 (Cytochrome P450 2C19; read-out: AC50): 3.98 µM (inconclusive)
30 | CCOc1cc(/C=N/NC(N)=S)cc(Br)c1OCc1ccccc1C | 0.114 µM (active) | > 60 µM (inconclusive) | –
31 | CCOc1nn(-c2ccccc2)c(O)c1/C=N/c1ccc(Cl)cc1 | – | – | AC50 (Cytochrome P450 3A4): 20 µM (inconclusive)

— ChEMBL document CHEMBL1201862, “PubChem BioAssay data set” (2004)
